Our source for the IC50 values is ChEMBL document CHEMBL1132253, “Potent inhibition of influenza sialidase by a benzoic acid containing a 2-pyrrolidinone substituent” (J Med Chem, 1999).

The target of the assay is Neuraminidase (Influenza B virus (strain B/Lee/1940), UniProt P03474). Description: In vitro inhibitory activity against B/Lee/40 Influenza B Neuraminidase.

For the compound `CCC(CC)Nc1cc(C(=O)O)ccc1N1CCCC1=O`, the concentration for half-maximal inhibition (IC50) was > 5000 µM.

`NCC1CCC(=O)N1c1ccc(C(=O)O)cc1N=C(N)N` (stereo unspecified) came in with an IC50 of 500 µM.

Regarding `CC(=O)Nc1c(N=C(N)N)cc(C(=O)O)cc1N=C(N)N`, the IC50 was 250 µM.

Consider `O=C(O)c1ccc(N2C(=O)CCC2(CO)CO)cc1`, for which the IC50 was > 8000 µM.

As to `CCC(CC)Nc1cc(C(=O)O)ccc1N1C(=O)CCC1(CO)CO`, the concentration for half-maximal inhibition (IC50) came out at 104 µM.

The compound `N=C(N)Nc1cc(C(=O)O)ccc1N1C(=O)CCC1(CO)CO` came in with an IC50 of 8 µM. This IC50 is about 13-fold lower than that of the compound before.
